These results are taken from PubChem BioAssay AID298 (DTP/NCI, 2004).

This assay has as its system MX-1 breast xenograft, intrarenal, nude mice, tumor weight. The assay is described as follows: NCI In Vivo Anticancer Drug Screen. Data for tumor model Human Mammary Carcinoma MX-1 Xenograft (intrarenal inoculation) in NU/NU BALB/C (nude) mice. As to conditions: endpoint: mean tumor weight change, higher = larger tumour. The method, then:
The antitumor activity of compounds was measured in mice bearing transplantable tumors. Survival or tumor size were measured and the results are expressed as the measurement made in the treated group (T) divided by the measurement made in the vehicle treated control group (C). The tumor model used in this assay is Human Mammary Carcinoma MX-1 Xenograft (intrarenal inoculation) in NU/NU BALB/C (nude) mice
On the technique in general: Xenograft models place foreign cells or tissue in a host animal.

The mark [1] stands for this setting: dose: 150.0 mg/kg/injection, schedule: Q04DX003 (ip), vehicle: Klucel (hydroxypropylcellulose) (HPC).
Where [2] appears, read: dose: 300.0 mg/kg/injection, schedule: Q04DX003 (ip), vehicle: saline with Tween-80.
[3] abbreviates: dose: 300.0 mg/kg/injection, schedule: Q04DX003 (ip), vehicle: Klucel (hydroxypropylcellulose) (HPC).
The mark [4] stands for this setting: dose: 600.0 mg/kg/injection, schedule: Q04DX003 (ip), vehicle: Klucel (hydroxypropylcellulose) (HPC).

Where “and” joins values, the source holds several entries; their conditions need not be identical. Identical values can stand only once. Results filed as inconclusive are left out.

As for `COc1cc2c(c(OC)c1OC)-c1ccc(OC)c(=O)cc1[C@@H](NC(=O)CCl)CC2`, the T/C is, setting by setting: (dose: 0.5 mg/kg/injection, schedule: Q04DX003 (sc), vehicle: saline with Tween-80) 87 % of control; (dose: 1.0 mg/kg/injection, schedule: Q04DX003 (sc), vehicle: saline with Tween-80) 43 % of control; (dose: 2.0 mg/kg/injection, schedule: Q04DX003 (sc), vehicle: saline with Tween-80) 8 % of control; (dose: 4.0 mg/kg/injection, schedule: Q04DX003 (sc), vehicle: saline with Tween-80) 1 % of control.
With `COc1cc(C2=NCCc3cc4c(cc32)OCO4)cc(OC)c1OC`, the T/C reads like this: (dose: 75.0 mg/kg/injection, schedule: Q04DX003 (ip), vehicle: saline + alcohol) 116 % of control; (dose: 150.0 mg/kg/injection, schedule: Q04DX003 (ip), vehicle: saline + alcohol) 99 % of control.
On to `Nc1c(/C=C/c2cc3cc(C4=NCCN4)ccc3o2)[nH]c2cc(C3=NCCN3)ccc12`, for which the T/C reads like this: (dose: 37.5 mg/kg/injection, schedule: Q04DX003 (ip), vehicle: Klucel (hydroxypropylcellulose) (HPC)) 80 % of control; (dose: 75.0 mg/kg/injection, schedule: Q04DX003 (ip), vehicle: Klucel (hydroxypropylcellulose) (HPC)) 103 % of control; under setting [1], 40 % of control.
Regarding `CSCCC(N)C(=O)O` (centres undefined), the T/C reads like this: under setting [2], 101 % of control; (dose: 600.0 mg/kg/injection, schedule: Q04DX003 (ip), vehicle: saline with Tween-80) 85 % of control and 105 % of control; (dose: 1200.0 mg/kg/injection, schedule: Q04DX003 (ip), vehicle: saline with Tween-80) 102 % of control and 112 % of control; (dose: 2400.0 mg/kg/injection, schedule: Q04DX003 (ip), vehicle: saline with Tween-80) 91 % of control and 106 % of control.
Turning to `Cc1c(O)/c(=C\O)c2nc3c(=O)ccc(C(=O)NCCN(C)C)c3[nH]c2c1=O`, the T/C runs as follows: (dose: 50.0 mg/kg/injection, schedule: Q04DX003 (ip), vehicle: other) 77 % of control; (dose: 100.0 mg/kg/injection, schedule: Q04DX003 (ip), vehicle: other) 100 % of control; (dose: 200.0 mg/kg/injection, schedule: Q04DX003 (ip), vehicle: other) 44 % of control.
For the compound `COC1C(N)C(OC2C(Oc3cccc4c(O)c5c(=O)oc6ccc(C)c7c(=O)oc(c34)c5c67)OC(C)C(O)C2(C)O)OC(C)C1O` (centres undefined), the T/C runs as follows: (dose: 2.5 mg/kg/injection, schedule: Q04DX003 (ip), vehicle: lactic acid) 90 % of control; (dose: 10.0 mg/kg/injection, schedule: Q04DX003 (ip), vehicle: lactic acid) 6 % of control.
For `NC(N)=NS(=O)(=O)c1ccc(NCc2c3ccccc3nc3ccccc23)cc1`, the T/C reads like this: under setting [1], 38 % of control and 41 % of control; under setting [3], 40 % of control and 43 % of control; under setting [4], 17 % of control and 22 % of control; (dose: 1200.0 mg/kg/injection, schedule: Q04DX003 (ip), vehicle: Klucel (hydroxypropylcellulose) (HPC)) 11 % of control and 17 % of control.
As to `COC1(OC)C2C=CC1CC2`, the T/C by setting is: (dose: 150.0 mg/kg/injection, schedule: Q04DX003 (sc), vehicle: saline with Tween-80) 116 % of control; (dose: 300.0 mg/kg/injection, schedule: Q04DX003 (sc), vehicle: saline with Tween-80) 104 % of control; (dose: 600.0 mg/kg/injection, schedule: Q04DX003 (sc), vehicle: saline with Tween-80) 121 % of control; (dose: 1200.0 mg/kg/injection, schedule: Q04DX003 (sc), vehicle: saline with Tween-80) 111 % of control.
For `C[n+]1ccc2cc(N)c3c4ccccc4sc3c2c1`, the T/C (dose: 12.5 mg/kg/injection, schedule: Q04DX003 (sc), vehicle: saline with Tween-80) is 96 % of control and the T/C (dose: 25.0 mg/kg/injection, schedule: Q04DX003 (sc), vehicle: saline with Tween-80) is 100 % of control.
Turning to `S=C1CCCCN1`, the T/C reads like this: (dose: 150.0 mg/kg/injection, schedule: Q04DX003 (ip), vehicle: distilled water + Tween-80 + alcohol) 82 % of control; (dose: 300.0 mg/kg/injection, schedule: Q04DX003 (ip), vehicle: distilled water + Tween-80 + alcohol) 72 % of control.
Turning to `Nc1ccn([C@@H]2C=C(CO)[C@@H](O)[C@H]2O)c(=O)n1`, the T/C (dose: 0.5 mg/kg/injection, schedule: Q01DX009 (ip), vehicle: saline) is 26 % of control and the T/C (dose: 2.0 mg/kg/injection, schedule: Q01DX009 (ip), vehicle: saline) was 3 % of control.
For the compound `Cc1cc(=NO)cc(C)n1O`, the T/C is 116 % of control (dose: 300.0 mg/kg/injection, schedule: Q04DX003 (sc), vehicle: distilled water + alcohol); 90 % of control (dose: 1200.0 mg/kg/injection, schedule: Q04DX003 (sc), vehicle: distilled water + alcohol); 89 % of control (dose: 2400.0 mg/kg/injection, schedule: Q04DX003 (sc), vehicle: distilled water + alcohol).
In the case of `C=CCNC(=O)c1ccccc1SC(C)=O`, the T/C runs as follows: (dose: 150.0 mg/kg/injection, schedule: Q04DX003 (ip), vehicle: saline with Tween-80) 93 % of control; under setting [2], 99 % of control.
In the case of `COC(=O)C1C2CCCN2OC1(C)CO` (centres undefined), the T/C (dose: 30.0 mg/kg/injection, schedule: Q01DX001 (ip), vehicle: saline) was 224 % of control; the T/C (dose: 240.0 mg/kg/injection, schedule: Q01DX001 (ip), vehicle: saline) was 118 % of control; the T/C (dose: 480.0 mg/kg/injection, schedule: Q01DX001 (ip), vehicle: saline) was 80 % of control.
As to `CCC1OC(OC)C=CC1=O` (centres undefined), the T/C is 112 % of control (dose: 18.75 mg/kg/injection, schedule: Q04DX003 (sc), vehicle: saline); 63 % of control (dose: 37.5 mg/kg/injection, schedule: Q04DX003 (sc), vehicle: saline); 98 % of control (dose: 75.0 mg/kg/injection, schedule: Q04DX003 (sc), vehicle: saline).
For the compound `CC1(C)CC(=O)C(CSC(=O)c2ccccc2)C(=O)C1`, the T/C reads like this: (dose: 75.0 mg/kg/injection, schedule: Q04DX003 (sc), vehicle: Klucel (hydroxypropylcellulose) (HPC)) 101 % of control; (dose: 150.0 mg/kg/injection, schedule: Q04DX003 (sc), vehicle: Klucel (hydroxypropylcellulose) (HPC)) 101 % of control; (dose: 300.0 mg/kg/injection, schedule: Q04DX003 (sc), vehicle: Klucel (hydroxypropylcellulose) (HPC)) 101 % of control.
Consider `COc1ccc(CC2C(=O)NC(C)C(=O)N(C)C3Cc4ccc(cc4)Oc4cc(ccc4O)CC(C(=O)NC(C)C(=O)NC(C)C(=O)N2C)N(C)C3=O)cc1` (centres undefined), for which the T/C (dose: 8.0 mg/kg/injection, schedule: Q04DX003 (sc), vehicle: saline with Tween-80) is 27 % of control; the T/C (dose: 16.0 mg/kg/injection, schedule: Q04DX003 (sc), vehicle: saline with Tween-80) is 25 % of control; the T/C (dose: 32.0 mg/kg/injection, schedule: Q04DX003 (sc), vehicle: saline with Tween-80) was 3 % of control.
`CN(N=O)C(N)=O`: the T/C by setting is: (dose: 25.0 mg/kg/injection, schedule: Q04DX003 (sc), vehicle: saline) 80 % of control; (dose: 50.0 mg/kg/injection, schedule: Q04DX003 (sc), vehicle: saline with Tween-80) 9 % of control; (dose: 50.0 mg/kg/injection, schedule: Q04DX003 (sc), vehicle: saline) 26 % of control.
`C#CCNC1=C(C)C(=O)C2=C(C1=O)[C@H](COC(N)=O)[C@]1(OC)[C@@H]3N[C@@H]3CN21`: the T/C reads like this: (dose: 1.85 mg/kg/injection, schedule: Q04DX003 (ip), vehicle: distilled water + Tween-80) 48 % of control; (dose: 1.88 mg/kg/injection, schedule: Q04DX003 (ip), vehicle: distilled water + Tween-80) 97 % of control; (dose: 3.75 mg/kg/injection, schedule: Q04DX003 (ip), vehicle: distilled water + Tween-80) 49 % of control and 55 % of control.
Turning to `CC(C)(C[NH-])C[NH-].[Cl][Pt+2][Cl]`, the T/C runs as follows: (dose: 1.5 mg/kg/injection, schedule: Q04DX003 (ip), vehicle: water) 56 % of control; (dose: 6.0 mg/kg/injection, schedule: Q04DX003 (ip), vehicle: water) 2 % of control and 3 % of control.
Consider `O=C(NC(Cc1ccc(I)cc1)C(=O)O)c1cccc(Br)c1` (centres undefined), for which the T/C was 57 % of control under setting [1], 72 % of control under setting [3] and 76 % of control under setting [4].
For `O=NNc1ccccn1`, the T/C is, setting by setting: (dose: 4.0 mg/kg/injection, schedule: Q01DX010 (sc), vehicle: saline) 124 % of control; (dose: 16.0 mg/kg/injection, schedule: Q01DX010 (sc), vehicle: saline) 80 % of control; (dose: 32.0 mg/kg/injection, schedule: Q01DX010 (sc), vehicle: saline) 14 % of control.
On to `COc1cccc2c1C(=O)c1c(O)c3c(c(O)c1C2=O)C[C@](O)(C(=O)CO)CC3OC1CC(N)C(OC2CCCCO2)C(C)O1` (some centres undefined), for which, where the note is “dose: 7.5 mg/kg/injection, schedule: Q04DX003 (ip), vehicle: water”, the T/C is 21 % of control.
